What was measured:
[1] = test system: GluN3-containing triheteromeric NMDARS; test: NMDAR-mediated EPSC at L1 synapses; assay type: cell-based, Sprague-Dawley rats; conditions: 10 and 100 micromolar; pure NMDAR-mediated EPSC, +30 mV; suppression greatest at the higher concentration
Description: (§1) FIG. 6 is a set of graphs showing the effect of D-serine on EPSCs for L1 and Str synapses of rat brains. The left panel depicts the average consecutive records (≤10) of pure NMDAR-mediated EPSC (pharmacologically isolated in a mixture containing NBQX and picrotoxin—PTX 50 micromolar, —to block AMPA-kainite receptors and GABAA-mediated inhibition) evoked in a single neuron (+30 mV) under the indicated conditions. The middle panel depicts the average percentage change in amplitude for both responses and the time course of these changes with D-serine administration times marked by the shaded region on the time plots.
(§2) The NMDARs at L1 inputs are GluN3-containing triheteromeric NMDARS, whereas the NMDARs at Str inputs are conventional diheteroemric NMDARs. To directly investigate Ca(2+)-permeability of NMDARs at L1 and Str synapses of Sprague-Dawley rats, shifts in reversal potential (Erev) of the synaptically activated currents were measured during local perfusion of isosmotic solutions with different extracellular Ca(2+) concentrations.

[2] = biological target: T1, conventional diheteroemric NMDARs (Rattus norvegicus, UniProt P35439); test: NMDAR-mediated EPSC at Str synapses; assay type: cell-based, Sprague-Dawley rats; conditions: 10 and 100 micromolar; pure NMDAR-mediated EPSC, +30 mV
T1 construct: effect of D-serine on EPSCs for L1 and Str synapses of rat brains; from tissue; host or cells: rat brain; synaptic currents recorded from single neurons (Str input)
Description: as §1, §2

[3] = test system: LIII of the medial entorhinal cortex; test: Stereological cell count in LIII of the medial entorhinal cortex, Nissl-stained brain slices of pilocarpine treated rats; assay type: in vivo, Sprague-Dawley rats
Description: (§3) Male Sprague-Dawley rats weighing about 200 grams were treated with a single systemic treatment of the cholinergic muscarinic agonist pilocarpine to mimic temporal lobe epilepsy as described by Kumar and Buckmaster in Journal of Neuroscience 26: 4613-4623 (2006), which is incorporated by reference herein. The rats were unilaterally implanted with a brain cannula and allowed to recover for three days prior to being treated with pilocarpine. The pilocarpine dose was 380 mg/kg. Following control of status epilepticus with diazepam and a latent period, 90% of the pilocarpine treated rats developed chronic spontaneous seizures with an underlying pathology that mimicked the kind seen in human patients with temporal lobe epilepsy. After pilocarpine treatment, a test group of rats was administered D-serine and a control group of rats was administered aCSF daily for 12 days. The first administration occurred two hours after pilocarpine treatment. The rats were video-monitored forty hours per week for frank seizure activity for the duration of the infusions. Following the treatment regimen, the rats were euthanized and their brains removed following intra-aortal perfusion with a fixative. Horizontal brain slices 50 micrometers thick from both groups were Nissl-stained for stereological quantification of cell populations in LIII of the medial entorhinal cortex.

pilocarpine treated rats = test: Video-monitored seizure activity in pilocarpine treated rats (temporal lobe epilepsy model), D-serine infused at the medial entorhinal cortex; assay type: in vivo, Sprague-Dawley rats
Description: as §3, with “infusions.” for “infusions. Following the treatment regimen, the rats were euthanized and their brains removed following intra-aortal perfusion with a fixative. Horizontal brain slices 50 micrometers thick from both groups were Nissl-stained for stereological quantification of cell populations in LIII of the medial entorhinal cortex.”

Question: Which “effect on L1 EPSCs” value [1] does the source give for `N[C@H](CO)C(=O)O` [D-serine] here?
Answer: significantly suppressed

Question: What about the “effect on Str EPSCs” value [2] of the same compound?
Answer: neither consistent nor statistically significant

Question: And the “Mean est. cell count (left + right)” value ([3]; LIII of medial entorhinal cortex, after 12 days treatment following pilocarpine, naive control 159 ± 21, vehicle 77 ± 1)?
Answer: 140 ± 10

Question: What about the “reduction of cell loss in LIII” value ([3]; after pilocarpine treatment) of the same compound?
Answer: about 80%

Question: What about the “cell loss in LIII from brain slice images” value ([3]; left medial entorhinal cortex of cannulated rats, FIG. 3) of the same compound?
Answer: prevented cell loss in LIII

Question: And the “percentage of pilocarpine treated rats that developed seizures” value (pilocarpine treated rats; D-serine daily for 12 days, 90% without D-serine)?
Answer: 25%

Question: And the rats seizure-free (pilocarpine treated rats; pilocarpine treated rats, D-serine daily for 12 days via brain cannula, video-monitored forty hours per week)?
Answer: 75%

— US10695310B2, “D-serine treatment for neurological disorders that cause seizures” (Florida State University Research Foundation, Inc., priority 2013, dated 2020)
